Values of other authors in patent publication US20240415880A1, “Treatment of Breast and Other Cancers Using Zinc Chloride Instead of Radiation” (priority 2023, published 2024).

Assays:
advanced melanomas = conditions: 103 consecutive advanced melanomas; zinc chloride combined with surgery
[1] = system: locally advanced breast cancer tumors; conditions: case presentations
[2] = system: cancers of the mouth, accessory nasal sinuses, larynx, parotid and other salivary glands, anal region, vulva and accessible sarcomas

## [Cl-].[Cl-].[Zn+2] [zinc chloride, Zinc chloride]
Advanced melanomas
  improvement in cure rates over conventional surgery of melanomas: significant and statistical (p=0.003) improvement
[1]
  healing of locally advanced breast cancer tumors: remarkable healing
[2]
  treatment outcome of cancers: successfully treated
